Ends that are not written are not given here.

In one assay the test system is ATCC 700603. The assay is classed as cell-based, Klebsiella pneumoniae. The note with it: ATCC 700603, 24 h. On the procedure: (§1) The bacterial inoculum was incubated overnight in MHB with shaking, then diluted 1:30 in fresh MHB and incubated with shaking for approximately 2 h to the mid-log phase, before resuspending to the appropriate dose, according to the optical density (OD). Minimum inhibitory concentration (MIC) determinations were carried out in MHB on mid-log phase bacteria (1–5 × 10^5 CFU/mL, CFU: colony-forming units) as previously described.

The next assay has as its system KpMn7. The assay is classed as cell-based, Klebsiella pneumoniae. The settings on record: 24 h. On the procedure:
as §1

For assay [1], the system named is KpTs101. The assay is classed as cell-based, Klebsiella pneumoniae. The note with it: 24 h. On the procedure: as §1
Another assay relates to KpTs107. The assay is classed as cell-based, Klebsiella pneumoniae. The settings on record: 24 h. On the procedure:
as §1

The next assay concerns KpTs109. The assay is classed as cell-based, Klebsiella pneumoniae. The settings on record: 24 h. On the procedure: as §1
The test system of assay [2] is KpTs113. The assay is classed as cell-based, Klebsiella pneumoniae. The note with it: 24 h. On the procedure:
as §1

In a further assay the test system is KpTs12. The assay is classed as cell-based, Klebsiella pneumoniae. The settings on record: 24 h. On the procedure: as §1
For a further assay, the system named is KpTs101 biofilm. Briefly: Biofilm susceptibility assay (BIC), sessile cells on peg lids. The assay is classed as cell-based, Klebsiella pneumoniae. The settings on record: sessile KpTs101, 24 h with peptide, then 6 h regrowth, OD590 < 0.05.
A further assay deals with KpTs113 biofilm. The assay is described as above. Type of assay: cell-based, Klebsiella pneumoniae. The settings on record: sessile KpTs113, 24 h with peptide, then 6 h regrowth, OD590 < 0.05.
The test system of assay [3] is KpTs101. The assay is classed as cell-based, Klebsiella pneumoniae. The settings on record: 24 h. On the procedure:
(§2) Minimum inhibitory concentration (MIC) determinations were carried out in MHB on mid-log phase bacteria (1–5 × 10^5 CFU/mL, CFU: colony-forming units) as previously described. […] Data are reported in Table 2 (Ps column) together with MIC and BIC values from Table 1 for an easy comparison. […] To further investigate this protection mechanism, we then determined if the matrix polysaccharide interacted with the helical AMP BMAP-27 by monitoring its effect on peptide structure, using circular dichroism.
The source holds these as a separate data set.

Assay [4] relates to KpTs113. Type of assay: cell-based, Klebsiella pneumoniae. The note with it: 24 h. On the procedure: as §2
The source holds these as a separate data set.

The next assay concerns KpMn7 biofilm. The note with it: 24 h.
Another assay concerns ATCC 700603 biofilm. The settings on record: ATCC 700603, 24 h.
The subject of a further assay is KpTs107 biofilm. The note with it: 24 h.
The subject of a further assay is KpTs12 biofilm. The settings on record: 24 h.
The next assay deals with KpTs109 biofilm. The note with it: 24 h.
Assay [5] relates to KpTs113. Kind of assay: Peptide uptake by flow cytometry with Trypan Blue quenching. Type of assay: cell-based, Klebsiella pneumoniae. The settings on record: KpTs113, 0.25 µM peptide, 10 min, 37 °C, 1 mg/mL TB. On the procedure:
Flow cytometric assays were performed with a Cytomics FC 500 instrument (Beckman-Coulter, Inc., Fullerton, CA, USA) equipped with an argon laser (488 nm, 5 mW) and photomultiplier tube fluorescence detectors. Filtered light wavelength was set at 610 nm for Propidium Iodide (PI) (Sigma, Saint Louis, MO, USA) detection and at 525 nm for BODIPY (BY) detection. All detectors were set on logarithmic amplification. Optical and electronic noise were eliminated by setting an electronic gating threshold on the forward scattering detector, while the flow rate was kept at a data rate below 300 events/second to avoid cell coincidence. For each sample, at least 10,000 events were acquired and stored as list mode files. For the uptake evaluation, cultures of mid-log phase bacteria, diluted to 1 × 10^6 CFU/mL in MHB, were incubated at 37 °C for 10 min with 0.25 µM Bac7(1–35)-BY; after incubation, treated bacterial cells were washed three times in buffered high salt solution (10 mM sodium phosphate, 400 mM NaCl, 10 mM MgCl2, pH 7.2) in order to remove the fraction of peptide bound to the cell surfaces, and immediately analysed by the flow cytometer with or without a 10 min pre-incubation at room temperature with 1 mg/mL of the quencher Trypan Blue (TB).

One may read the MIC as the lowest concentration that inhibits growth of the organism. A low value points to inhibition by little substance. Consider “RRIRPRPPRLPRPRPRPLPFPRPGPRPIPRPLPFP [Bac7(1–35)]”, for which the MIC is on record as 4 µM against ATCC 700603; 4 µM against KpMn7; 2 µM in the assay with KpTs101 [1]; 4 µM against KpTs107; 4 µM in the assay with KpTs109; 2 µM in the assay on KpTs113 [2]. In the assay on KpTs12, this substance registered a minimum inhibitory concentration (MIC) of 4 µM. Besides, the “BIC (biofilm inhibitory concentration)” value in the assay on KpTs101 biofilm is listed as 64 µM; in the assay with KpTs113 biofilm, 64 µM; with KpMn7 biofilm, 32 µM; with ATCC 700603 biofilm it was 32 µM; in the assay with KpTs107 biofilm, 16 µM; in the assay on KpTs12 biofilm it was 8 µM. Moreover, the “BIC (biofilm inhibitory concentration)” value in the assay with KpTs109 biofilm came out at 32 µM. For the same substance, the “Ps, MIC in the presence of matrix polysaccharide” value with KpTs101 [3] and in the assay on KpTs113 [4] was 32 µM in each case.
“GRFKRFRKKFKKLFKKLSPVIPLLHL-NH2 [BMAP-27]”: the MIC in the assay on ATCC 700603 was found to be 4 µM; in the assay on KpMn7, 4 µM; against KpTs101 [1] it was 2 µM; in the assay with KpTs107 it was 4 µM; in the assay with KpTs109, 4 µM; in the assay with KpTs113 [2], 2 µM. Besides, the MIC against KpTs12 is listed as 4 µM. The “BIC (biofilm inhibitory concentration)” value is recorded as over 64 µM in the assay on KpTs101 biofilm; over 64 µM in the assay on KpTs113 biofilm; 64 µM with KpMn7 biofilm; 64 µM in the assay with ATCC 700603 biofilm; over 64 µM in the assay on KpTs107 biofilm; 16 µM in the assay with KpTs12 biofilm. For the same substance, the “BIC (biofilm inhibitory concentration)” value in the assay with KpTs109 biofilm worked out at 32 µM. In addition, the “Ps, MIC in the presence of matrix polysaccharide” value in the assay on KpTs101 [3] and in the assay with KpTs113 [4] was 64 µM each time.
Take “Bac7(1–35)-BY: BODIPY fluorescently labelled derivative of Bac7(1–35) (RRIRPRPPRLPRPRPRPLPFPRPGPRPIPRPLPFP; also: BODIPY label, position not given here; UniProt P19661 131-165, looked up, fragment)”: the “quenching of cell fluorescence by Trypan Blue (uptake)” value in the assay on KpTs113 [5] is listed as under 10%.
